From patent US20220280647A1, “Hydrophobic Peptide Salts for Extended Release Compositions” (BIOMARIN PHARMACEUTICAL INC., priority 2019, published 2022)
Values belong to the compound of their own block, whether it stands above or below them. Where no end group is shown, it is not given here.

What was measured:
[1] = pH 9
Procedure: To make hydrophobic CNP salts, including CNP variants, CNP-acetate is placed into water or a buffer. In a first experiment, a stock solution comprising CNP at 20 mg/mL in water was prepared. […] Disodium pamoic acid, oleic acid, or sodium docusate were placed in a buffer at a concentration that is in a molar excess to the number of oppositely charged groups on CNP, in this instance a 12 molar excess of counterion to CNP. CNP has 6 positively charged groups at pH 7, and this is a two-fold excess over the number of positively charged groups.

NPR—B = target: T1, NPR—B (Homo sapiens, UniProt P20594); settings: cited from earlier work
T1 sequence (P20594 23-1047): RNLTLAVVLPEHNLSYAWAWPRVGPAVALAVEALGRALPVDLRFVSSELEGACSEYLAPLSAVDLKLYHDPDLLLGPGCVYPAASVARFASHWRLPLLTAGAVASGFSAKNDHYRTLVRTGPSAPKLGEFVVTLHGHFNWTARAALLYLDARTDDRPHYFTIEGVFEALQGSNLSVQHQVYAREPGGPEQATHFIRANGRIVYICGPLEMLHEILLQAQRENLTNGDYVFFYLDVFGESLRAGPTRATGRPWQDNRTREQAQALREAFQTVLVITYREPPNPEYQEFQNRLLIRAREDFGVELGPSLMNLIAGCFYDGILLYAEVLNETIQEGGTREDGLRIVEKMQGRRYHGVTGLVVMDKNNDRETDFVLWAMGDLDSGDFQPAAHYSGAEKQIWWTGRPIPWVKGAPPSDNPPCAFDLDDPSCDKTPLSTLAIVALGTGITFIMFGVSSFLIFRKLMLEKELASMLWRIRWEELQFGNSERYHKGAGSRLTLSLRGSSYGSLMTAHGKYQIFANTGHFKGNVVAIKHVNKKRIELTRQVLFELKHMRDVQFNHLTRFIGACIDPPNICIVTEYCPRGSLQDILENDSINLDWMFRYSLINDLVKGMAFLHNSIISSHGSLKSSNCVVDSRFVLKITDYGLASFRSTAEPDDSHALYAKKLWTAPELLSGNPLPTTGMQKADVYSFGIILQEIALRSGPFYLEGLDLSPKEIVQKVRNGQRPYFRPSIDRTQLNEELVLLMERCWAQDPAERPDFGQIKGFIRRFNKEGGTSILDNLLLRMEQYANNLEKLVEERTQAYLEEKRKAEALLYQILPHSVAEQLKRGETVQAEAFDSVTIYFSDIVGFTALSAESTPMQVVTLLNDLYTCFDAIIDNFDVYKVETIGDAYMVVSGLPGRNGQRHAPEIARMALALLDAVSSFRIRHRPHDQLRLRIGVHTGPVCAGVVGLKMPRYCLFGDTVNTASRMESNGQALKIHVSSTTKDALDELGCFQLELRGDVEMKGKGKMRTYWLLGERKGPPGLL

NPR2 = target: T2, NPR2 (Rattus norvegicus, UniProt P16067); assay: cGMP stimulation assay (CatchPoint Cyclic-GMP Fluorescent Assay) in NPR2 mutant RCS cells; assay type: cell-based
T2 construct: endogenous in cells; host or cells: RCS (rat chondrosarcoma) cells, wild-type and NPR2+/- clones
T2 sequence (P16067 17-1047): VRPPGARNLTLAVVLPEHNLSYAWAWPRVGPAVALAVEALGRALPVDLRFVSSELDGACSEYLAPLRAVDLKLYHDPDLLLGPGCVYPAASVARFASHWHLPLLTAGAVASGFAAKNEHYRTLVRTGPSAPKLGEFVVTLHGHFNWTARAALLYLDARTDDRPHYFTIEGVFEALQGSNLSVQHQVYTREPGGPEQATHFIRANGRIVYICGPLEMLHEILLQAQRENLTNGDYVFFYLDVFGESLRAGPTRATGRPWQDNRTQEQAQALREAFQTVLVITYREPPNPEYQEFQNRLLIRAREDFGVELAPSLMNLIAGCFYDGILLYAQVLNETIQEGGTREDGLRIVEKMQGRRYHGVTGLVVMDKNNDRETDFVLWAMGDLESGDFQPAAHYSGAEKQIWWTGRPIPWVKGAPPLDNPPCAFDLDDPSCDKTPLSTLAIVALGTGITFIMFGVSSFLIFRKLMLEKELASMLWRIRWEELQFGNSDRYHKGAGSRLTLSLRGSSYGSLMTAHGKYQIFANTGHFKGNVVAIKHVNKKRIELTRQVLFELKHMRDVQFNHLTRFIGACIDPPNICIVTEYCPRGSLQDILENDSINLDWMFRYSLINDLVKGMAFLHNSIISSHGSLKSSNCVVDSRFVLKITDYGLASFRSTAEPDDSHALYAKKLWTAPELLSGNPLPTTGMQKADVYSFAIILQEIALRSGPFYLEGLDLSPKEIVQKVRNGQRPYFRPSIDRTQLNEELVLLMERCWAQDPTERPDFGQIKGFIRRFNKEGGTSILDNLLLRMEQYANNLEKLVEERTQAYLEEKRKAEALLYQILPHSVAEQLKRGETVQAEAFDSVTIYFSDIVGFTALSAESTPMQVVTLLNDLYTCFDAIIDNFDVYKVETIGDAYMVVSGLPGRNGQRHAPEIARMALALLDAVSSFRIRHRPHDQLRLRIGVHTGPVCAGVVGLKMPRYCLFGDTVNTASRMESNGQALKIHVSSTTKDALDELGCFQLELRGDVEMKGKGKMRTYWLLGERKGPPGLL
Procedure: To determine the effects of CNP on subjects with short stature resulting from NPR2 mutations, cellular models of NPR2 mutations were developed. Exemplary NPR2 mutations analyzed are set out in FIG. 5. Rat chondrosarcoma (RCS) cells having either a knockout of, or heterozygous loss of function mutations in, the NPR2 gene were made by RNP transfection into RCS cells using 125 ng NPR2 variants or wild-type NPR2 plasmid DNA transfected into RCS or HEK293 cells. Single cell clones were seeded and genotyped by Sanger sequencing. Cell models are able to reproduce published cGMP phenotypes of the different mutations.
The NPR2 clones were created by creating insertions and deletions in the first exon of NPR2 in RCS cells. The sequence of the first exon in NPR2 was confirmed by next-generation sequencing and is set out in FIG. 4. NPR2 mutant cells were tested for activity in response to CNP administration by a cGMP stimulation assay using a CatchPoint Cyclic-GMP Fluorescent Assay after treatment with 6 nM of Pro-Gly CNP37. Briefly, NIH3T3 cells (ATCC, CRL-1658) and NPR-transfected HEK293 cells were seeded at 60,000 cells/well in a 96-well plate (96-well black imaging plates, Grenier, #655090). RCS (rat chondrosarcoma) cells were seeded at 40,000 cells/well. Culture media was as follows: NIH3T3 culture media: DMEM high glucose, pyruvate (Thermo, 11995-073)+10% FBS+1× Pen Strep (abbrev P/S, Thermo, cat #15140122). NIH3T3 was the control system for the cGMP assay HEK293 culture media: EMEM+10% FBS+1×P/S+1×GMAX. RCS culture media: DMEM+10% FBS+1× Pen Strep. Serum free NIH3T3 media: DMEM+1×P/S for treatment of cells with IBMX (CAS 28822-58-4); Serum free NIH3T3 media with BSA: DMEM+1×P/S+0.5 mg/mL BSA (Thermo, A9418-100G) for treatment of cells with CNP.
Cells were incubated for 24 hours at 37° C., 5% CO2. For cells to be treated with CNP variants, plates were pre-treated with IBMX (Enzo life sciences, 89161-340, 1 g) 15 minutes prior to use. IBMX is a potent, non-specific inhibitor of phosphodiesterases. An 800 mM stock solution of IBMX is diluted in IBMX dilution media (serum-free media (DMEM+[…] mixed 1:1 with 1×PBS) to a 0.75 mM working stock.
For cell treatment, cells were removed from the incubator, growth media was removed from cells and cells treated with IBMX. 80 μL 0.75 mM IBMX was added to each well and cells returned to 37° C. incubator for 15 minutes. […]
The cGMP assay was carried out using a cGMP calibrator, rabbit anti-cGMP antibody and HRP-cGMP prepared as according to manufacturer's protocol. 40 μL of calibrator was added to wells of an anti-cGMP antibody coated plated, and 40 μL of lysate to be analyzed added to the appropriate wells. […] The plate was read for fluorescence intensity on a Spectramax M, or similar instrument, at excitation 530 nm and emission at 590 nm.

[2] = test system: mice deficient in Nf1 in type II collagen producing cells; settings: daily injections; cited from earlier work
[3] = test system: mouse model of Cardiofaciocutaneous syndrome using a Braf mutation (p.Q241R); settings: in vivo; cited from earlier work
[4] = cited from earlier work
PRKG2 = settings: previous activation data (Campbell 2017; Vaandrager 1997; Pohler 1995); cited from earlier work

- solubility of counterion [1]: soluble
Compound: CCCCC(CC)COC(=O)CC(C(=O)OCC(CC)CCCC)S(=O)(=O)[O-].[Na+] (centres unmarked) [sodium docusate]

Compound: DLRVDTKSRAAWARLLQEHPNARKYKGANKKGLSKGCFGLKLDRIGSMSGLGC [CNP-53]
- binding to NPR—B (NPR—B): bind similarly

Compound: CNP: C-type natriuretic peptide; in the cGMP assay cells were treated with Pro-Gly CNP37 (PGQEHPNARKYKGANKKGLSKGCFGLKLDRIGSMSGLGC; not fully specified (N-terminus, C-terminus); ends and bridges not checked)
- rescue of NPR2 signaling (NPR2; cell model of NPR2 haploinsufficiency, exogenous CNP): dose-dependent rescue of NPR2 signaling
- CNP dose able to achieve an intracellular cGMP concentration exceeding the EC50 range for PRKG2 activation (NPR2; heterozygous NPR2 knockout cells): > 0.163 nM
- CNP dose able to achieve the same cGMP concentration (NPR2; wild-type cells): 0.040 nM
- ERK phosphorylation [2]: decreased ERK phosphorylation
- short stature [2]: corrected the short stature
- body length [3]: increases in body length

- solubility of counterion [1]: soluble
Compound: O=C(O)c1cc2ccccc2c(Cc2c([O-])c(C(=O)O)cc3ccccc23)c1[O-].[Na+].[Na+] [disodium pamoic acid]

- cGMP readout (NPR2; NPR2+/− rat chondrosarcoma cell model, exogenous peptide (FIG. 3)): rescues cGMP readout
Compound: PGQEHPNARKYKGANKKGLSKGCFGLKLDRIGSMSGLGC (not fully specified (N-terminus, C-terminus); cysteine pairing not given here) [Pro-Gly-CNP37, CNP variant]

- solubility of counterion [1]: soluble
Compound: CCCCCCCC/C=C\CCCCCCCC(=O)O [oleic acid]
- pKa [4]: 4-5

Compound: Nc1nc2c(ncn2[C@@H]2O[C@@H]3COP(=O)(O)O[C@H]3[C@H]2O)c(=O)[nH]1 [cGMP, guanosine 3′,5′ cyclic monophosphate]
- EC50 (PRKG2): 40 to 360 nM

Compound: GLSKGCFGLKLDRIGSMSGLGC [CNP-22]
- binding to NPR—B (NPR—B): bind similarly
